Laboratory results from patent publication US4314061A, “Certain 3,6-bis-(heteroaminoalkoxy) acridines” (priority 1980, dated 1982).

Columns and labels:
Lewis lung carcinoma = assay: Surgical-adjuvant antitumor activity against Lewis lung carcinoma implanted subcutaneously in footpads; assay type: in vivo, BDF1 mice; conditions: for Average % of tumor weight inhibition / Average tumor weight: Day +11; for No. Survivors/No. Treated: at +90 days; for % Increased life-span: + significant (≥25%)
Description: BDF1 mice were inoculated subcutaneously in the right hind footpad with 5×10^5 viable Lewis Lung carcinoma cells, on day zero. […] A control group of mice received a saline placebo instead of drug, and another group of tumor bearing mice received the positive control drug cyclophosphamide, at 100 mg/kg, administered by intraperitoneal injection. On the 11th day after tumor implantation, the mice were anesthesized with Nembutal, and the tumor bearing feet surgically amputated above the ankle joint. The surgical incision was swabbed with alcohol and sealed with stainless steel wound clips. The tumor bearing feet were individually weighed and the average weight of a normal foot (determined by weighing amputated feet from non-tumor bearing mice of the same age, sex and body weight) was subtracted to obtain the weight of tumor tissue in the amputated foot. Mice were then observed for deaths until the 90th day after tumor implantation. […]
^1 BDF1 male mice inoculated subcutaneously in footpad with 5
× 10^5 Lewis lung tumor cells on day zero;
(§1) 3,6bis(2-diethylaminoethoxy)acridine trihydrochloride administered orally
(§2) and Cyclophosphamide intraperitoneally, on days 1, 7, and 13 following
(§3) ^2 Average tumor weight determined after surgical amputation of tumor
bearing foot on day 11 following tumor implantation.

[1] = tested on: Rauscher Virus-Induced Leukemia; assay: Restoration of antibody formation in mice with Rauscher virus-induced leukemia; assay type: in vivo, Balb/c mice; conditions: 100 mg/kg IP
[2] = tested on: natural killer lymphocytes (NK cells); assay: Stimulation of NK-cell activity in normal mice
B16 melanoma = assay: Surgical-adjuvant antitumor activity against B16 melanoma implanted subcutaneously in footpads; assay type: in vivo, BDF1 mice; conditions: for Average % of tumor weight inhibition / Average tumor weight: Day +21; for No. Survivors/No. Treated: at +90 days
Description: BDF1 mice were inoculated subcutaneously in the right hind footpad with 5×10^5 viable B16 melanoma cells, on day zero. The drug was prepared in normal saline and administered by the oral route once daily, on days 1, 7, and 13 following tumor implantation, at doses range from 50 mg/kg to 400 mg/kg. A control group of mice received a saline placebo instead of drug, and another group of tumor bearing mice received the positive control drug cyclophosphamide, at 100 mg/kg, by intraperitoneal injection. On the 21st day after tumor implantation, the mice were anesthesized with Nembutal, and the tumor bearing feet were surgically amputated above the ankle joint. The surgical incision was swabbed with alcohol and sealed with stainless steel wound clips. The tumor bearing feet were individually weighed and the average weight of a normal foot (determined by weighing amputated feet from non-tumor bearing mice of the same sex, age, and body weight) was subtracted to obtain the weight of tumor tissue in the amputated feet. Mice were then observed for deaths until the 90th day after tumor implantation. […]
^1 BDF1 male mice inocluated with 5 × 10^5 B16 melanom
cells subcutaneously in footpad on day zero;
as §1, §2, §3
bearing foot on day 21 following tumor implantation.

[3] = 200 mg/kg oral, * significant (≥58%)
[4] = 300 mg/kg oral, * significant (≥58%)
[5] = 400 mg/kg oral, * significant (≥58%)

Compound: CCN(CC)CCOc1ccc2cc3ccc(OCCN(CC)CC)cc3nc2c1.Cl.Cl.Cl
- Median survival time (Lewis lung carcinoma; 50 mg/kg oral): > 90.0 days
- Average % of tumor weight inhibition (Lewis lung carcinoma; 50 mg/kg oral): 38%
- Average tumor weight (Lewis lung carcinoma; 50 mg/kg oral): 236 mg
- No. Survivors/No. Treated (Lewis lung carcinoma; 50 mg/kg oral): 8/12
- % Increased life-span (Lewis lung carcinoma; 50 mg/kg oral): > 200%
- Median survival time (Lewis lung carcinoma; 100 mg/kg oral): > 90.0 days
- Average % of tumor weight inhibition (Lewis lung carcinoma; 100 mg/kg oral): 46%
- Average tumor weight (Lewis lung carcinoma; 100 mg/kg oral): 203 mg
- No. Survivors/No. Treated (Lewis lung carcinoma; 100 mg/kg oral, ** p < .05): 9/12
- % Increased life-span (Lewis lung carcinoma; 100 mg/kg oral): > 200%
- Median survival time (Lewis lung carcinoma; 200 mg/kg oral): > 90.0 days
- Average tumor weight (Lewis lung carcinoma; 200 mg/kg oral): 38 mg
- Average % of tumor weight inhibition (Lewis lung carcinoma; [3]): 90%
- No. Survivors/No. Treated (Lewis lung carcinoma; 200 mg/kg oral, ** p < .05): 12/12
- % Increased life-span (Lewis lung carcinoma; 200 mg/kg oral): > 200%
- Median survival time (Lewis lung carcinoma; 300 mg/kg oral): > 90.0 days
- Average tumor weight (Lewis lung carcinoma; 300 mg/kg oral): 56 mg
- Average % of tumor weight inhibition (Lewis lung carcinoma; [4]): 85%
- No. Survivors/No. Treated (Lewis lung carcinoma; 300 mg/kg oral, ** p < .05): 10/12
- % Increased life-span (Lewis lung carcinoma; 300 mg/kg oral): > 200%
- Median survival time (Lewis lung carcinoma; 400 mg/kg oral): > 90.0 days
- Average tumor weight (Lewis lung carcinoma; 400 mg/kg oral): 17 mg
- Average % of tumor weight inhibition (Lewis lung carcinoma; [5]): 96%
- No. Survivors/No. Treated (Lewis lung carcinoma; 400 mg/kg oral, ** p < .05): 10/12
- % Increased life-span (Lewis lung carcinoma; 400 mg/kg oral): > 200%
- Serum hemagglutinin titer/saline control titer [1]: 512/32
- % Cytotoxicity ([2]; Test 1 (CD1 mice), 75 mg/kg oral, ** p <.01): 29.5%
- % Cytotoxicity ([2]; Test 1 (CD1 mice), 150 mg/kg oral, ** p <.01): 37.7%
- % Cytotoxicity ([2]; Test 1 (CD1 mice), 300 mg/kg oral, * p <.05): 25.8%
- % Cytotoxicity ([2]; Test 2 (BDF1 hybrids), 75 mg/kg oral, ** p <.01): 44.4%
- % Cytotoxicity ([2]; Test 2 (BDF1 hybrids), 150 mg/kg oral, ** p <.01): 40.9%
- % Cytotoxicity ([2]; Test 2 (BDF1 hybrids), 300 mg/kg oral, * p <.05): 38.2%
- Stimulation of NK cell activity, in words ([2]; mouse, in vivo): active in this test
- % Increased life-span (B16 melanoma; 50 mg/kg oral): 2%
- Median survival time (B16 melanoma; 50 mg/kg oral): 54.0 days
- Average % of tumor weight inhibition (B16 melanoma; 50 mg/kg oral): 33%
- Average tumor weight (B16 melanoma; 50 mg/kg oral): 403 mg
- No. Survivors/No. Treated (B16 melanoma; 50 mg/kg oral): 0/12
- % Increased life-span (B16 melanoma; 100 mg/kg oral): 21%
- Median survival time (B16 melanoma; 100 mg/kg oral): 64.0 days
- Average tumor weight (B16 melanoma; 100 mg/kg oral): 225 mg
- Average % of tumor weight inhibition (B16 melanoma; 100 mg/kg oral, * significant (≥58%)): 63%
- No. Survivors/No. Treated (B16 melanoma; 100 mg/kg oral): 2/12
- Median survival time (B16 melanoma; 200 mg/kg oral): > 90.0 days
- Average tumor weight (B16 melanoma; 200 mg/kg oral): 122 mg
- Average % of tumor weight inhibition (B16 melanoma; [3]): 80%
- No. Survivors/No. Treated (B16 melanoma; 200 mg/kg oral, ** significant): 7/12
- % Increased life-span (B16 melanoma; 200 mg/kg oral, + significant (≥25%)): > 70%
- Median survival time (B16 melanoma; 300 mg/kg oral): > 90.0 days
- Average tumor weight (B16 melanoma; 300 mg/kg oral): 63 mg
- Average % of tumor weight inhibition (B16 melanoma; [4]): 90%
- No. Survivors/No. Treated (B16 melanoma; 300 mg/kg oral, ** significant): 8/12
- % Increased life-span (B16 melanoma; 300 mg/kg oral, + significant (≥25%)): > 70%
- Median survival time (B16 melanoma; 400 mg/kg oral): 69.0 days
- Average tumor weight (B16 melanoma; 400 mg/kg oral): 51 mg
- Average % of tumor weight inhibition (B16 melanoma; [5]): 92%
- No. Survivors/No. Treated (B16 melanoma; 400 mg/kg oral, ** significant): 5/12
- % Increased life-span (B16 melanoma; 400 mg/kg oral, + significant (≥25%)): 30%
